From patent US9353082B2, “Pharmaceutical compounds” (BIAL—PORTELA & CA, S.A., priority 2008, dated 2016) come the findings set out here.

One assay has as its target T1, FAAH (Rattus norvegicus, UniProt P97612).
T1 construct: Frozen brains (without cerebellum) from Wistar rats were used; from tissue; host or cells: Wistar rat brain (without cerebellum), washed membrane pellets
T1 sequence (P97612 1-579): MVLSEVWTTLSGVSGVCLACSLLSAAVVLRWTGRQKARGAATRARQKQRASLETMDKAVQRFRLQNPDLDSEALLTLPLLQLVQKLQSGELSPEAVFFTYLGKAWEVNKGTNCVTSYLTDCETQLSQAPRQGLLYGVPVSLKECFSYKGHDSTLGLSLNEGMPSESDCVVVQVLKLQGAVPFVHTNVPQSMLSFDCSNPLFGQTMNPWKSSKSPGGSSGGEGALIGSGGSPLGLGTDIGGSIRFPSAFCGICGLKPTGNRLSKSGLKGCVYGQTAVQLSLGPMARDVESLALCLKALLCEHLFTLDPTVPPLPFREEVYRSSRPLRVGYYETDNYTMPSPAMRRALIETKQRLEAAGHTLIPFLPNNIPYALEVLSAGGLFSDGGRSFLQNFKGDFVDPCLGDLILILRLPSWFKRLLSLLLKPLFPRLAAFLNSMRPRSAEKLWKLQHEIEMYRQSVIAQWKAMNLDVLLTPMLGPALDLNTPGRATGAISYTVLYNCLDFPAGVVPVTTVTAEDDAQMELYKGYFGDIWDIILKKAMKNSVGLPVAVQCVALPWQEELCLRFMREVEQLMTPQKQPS
Put plainly: In vitro FAAH activity in rat brain membranes, 3H-AEA substrate, % of control. The class given is biochemical, Wistar rats. As to conditions: 100 nM test compound, low value = strong inhibitor. Summed up: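 FAAH activity measured as 3H-ethanolamine released from 2 μM [3H]AEA over 10 min by rat brain membrane preparation, after 15 min 37 °C preincubation with test compound at 10 or 0.1 μM. Charcoal-separated supernatant scintillation-counted; values expressed as % of control minus no-protein blank.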
`CN(C(=O)n1nnc2ccccc21)[C@H]1CC[C@H](OCc2ccccc2)CC1` [Compound 152, N-((1r,4r)-4-(benzyloxy)cyclohexyl)-N-methyl-1H-benzo[d][1,2,3]triazole-1-carboxamide]: the “In Vitro FAAH activity, 100 nM” value is 1.3 % of control.

Consider `Cl.O=C(N1CCN(Cc2ccccc2)CC1)n1nnc2ccccc21` [Compound 93, (1H-benzo[d][1,2,3]triazol-1-yl)(4-benzylpiperazin-1-yl)methanone hydrochloride], for which the “In Vitro FAAH activity, 100 nM” value was 0 % of control. On the same count and under the same terms, with `O=C(N1CCOCC1)n1nc(Cl)c2ccccc21` [Compound 72, (3-chloro-1H-indazol-1-yl)(morpholino)methanone] the figure was 87.6 % of control; with `CC1OCCN1C(=O)n1cnc(-c2ccccc2)c1` (stereo not shown) [Compound 227, (2-methyloxazolidin-3-yl)(4-phenyl-1H-imidazol-1-yl)methanone], 64.7 % of control; with `CN(Cc1ccc(F)cc1)C(=O)n1nnc2ccccc21` [Compound 130, N-(4-fluorobenzyl)-N-methyl-1H-benzo[d][1,2,3]triazole-1-carboxamide], 0 % of control. For `COc1ccc(-c2ncn(C(=O)N3CCOCC3)n2)cc1` [Compound 65, (3-(4-methoxyphenyl)-1H-1,2,4-triazol-1-yl)(morpholino)methanone], the “In Vitro FAAH activity, 100 nM” value is on record as 86.5 % of control. In the case of `O=C(N1CCC(Oc2ccccc2)CC1)n1nnc2ccccc21` [Compound 120, (1H-benzo[d][1,2,3]triazol-1-yl)(4-phenoxypiperidin-1-yl)methanone], the “In Vitro FAAH activity, 100 nM” value is 0.1 % of control. Still for that read-out and setting: for `CN(C(=O)n1cnc(-c2ccc(Cl)cc2)c1)c1ccc(F)cc1` [Compound 43, 4-(4-chlorophenyl)-N-(4-fluorophenyl)-N-methyl-1H-imidazole-1-carboxamide] the value was 88 % of control. Turning to `O=C(N1CCOCC1)n1ccc2cc(O)ccc21` [Compound 52, (5-hydroxy-1H-indol-1-yl)(morpholino)methanone], the “In Vitro FAAH activity, 100 nM” value is on record as 102.7 % of control. On the same count and under the same terms, for `CC1(C)COCN1C(=O)n1nnc2cc(-c3cccc(C(N)=O)c3)ccc21` [Compound 243, 3-(1-(4,4-dimethyloxazolidine-3-carbonyl)-1H-benzo[d][1,2,3]triazol-5-yl)benzamide] the value was 39.7 % of control. Take `CN(C(=O)n1cnc(-c2ccc(OCCN3CCOCC3)cc2)c1)c1ccccc1.Cl` [Compound 230, N-methyl-4-(4-(2-morpholinoethoxy)phenyl)-N-phenyl-1H-imidazole-1-carboxamide hydrochloride]: the “In Vitro FAAH activity, 100 nM” value was 96.1 % of control. On the same count and under the same terms, with `CC(C)N(Cc1ccccc1)C(=O)n1cnc(-c2cccc(O)c2)c1` [Compound 265, N-benzyl-4-(3-hydroxyphenyl)-N-isopropyl-1H-imidazole-1-carboxamide] the figure was 99.6 % of control; with `Cc1ccc(OC2CCN(C(=O)n3cnc(-c4ccc(N5CCN(C)CC5)cc4)n3)CC2)cc1.Cl` [Compound 132, (3-(4-(4-methylpiperazin-1-yl)phenyl)-1H-1,2,4-triazol-1-yl)(4-(p-tolyloxy)piperidin-1-yl)methanone hydrochloride], 85.1 % of control. The same measure, in the same setting: with `CN(C(=O)n1nnc2ccccc21)c1ccccn1` [Compound 84, N-methyl-N-(pyridin-2-yl)-1H-benzo[d][1,2,3]triazole-1-carboxamide] the figure was 62.5 % of control; with `NC(=O)c1ccc(Oc2cccc(-c3ncn(C(=O)N4CCOCC4)n3)c2)cc1` [Compound 210, 4-(3-(1-(morpholine-4-carbonyl)-1H-1,2,4-triazol-3-yl)phenoxy)benzamide], 73.3 % of control. Still for that read-out and setting: with `O=C(N1CCOCC1)n1cnc(-c2ccc(Cl)cc2)n1` [Compound 68, (3-(4-chlorophenyl)-1H-1,2,4-triazol-1-yl)(morpholino)methanone] the figure was 73.5 % of control. Consider `CN(C(=O)n1cnc(-c2ccc(Cl)cc2)c1)c1ccccc1` [Compound 27, 4-(4-chlorophenyl)-N-methyl-N-phenyl-1H-imidazole-1-carboxamide], for which the “In Vitro FAAH activity, 100 nM” value is reported as 71.4 % of control. On the same count and under the same terms, for `Cl.O=C(N1CCN(Cc2ccccc2)CC1)n1cnc(-c2ccccc2)n1` [Compound 124, (4-benzylpiperazin-1-yl)(3-phenyl-1H-1,2,4-triazol-1-yl)methanone hydrochloride] the value was 1.5 % of control; for `CN(C(=O)n1cnc(-c2cccc(OCCN3CCNCC3)c2)c1)c1ccccc1.Cl.Cl` [Compound 200, N-methyl-N-phenyl-4-(3-(2-(piperazin-1-yl)ethoxy)phenyl)-1H-imidazole-1-carboxamide dihydrochloride], 100.1 % of control; for `O=C(Nc1ccc(-c2ccccc2)cc1)n1nnc2ccccc21` [Compound 88, N-(biphenyl-4-yl)-1H-benzo[d][1,2,3]triazole-1-carboxamide], 105.4 % of control. In the case of `CN(C(=O)n1cnc(-c2ccc(F)cc2F)n1)c1ccc(F)cc1F` [Compound 80, N,3-bis(2,4-difluorophenyl)-N-methyl-1H-1,2,4-triazole-1-carboxamide], the “In Vitro FAAH activity, 100 nM” value is recorded as 89.5 % of control. On the same count and under the same terms, for `NC(=O)C1CCN(C(=O)n2nnc3ccccc32)CC1` [Compound 179, 1-(1H-benzo[d][1,2,3]triazole-1-carbonyl)piperidine-4-carboxamide] the value was 49 % of control; for `CCOc1cccc(-c2cccc(-c3cn(C(=O)N(C)C4CCCCC4)cn3)c2)c1` [Compound 258, N-cyclohexyl-4-(3'-ethoxybiphenyl-3-yl)-N-methyl-1H-imidazole-1-carboxamide], 39.9 % of control; for `CN(C)C(=O)n1cnc(-c2ccc(Oc3ccc(C#N)cc3)cc2)n1` [Compound 140, 3-(4-(4-cyanophenoxy)phenyl)-N,N-dimethyl-1H-1,2,4-triazole-1-carboxamide], 58.6 % of control. Still for that read-out and setting: for `COc1ccc(OCC2CCN(C(=O)n3nnc4ccccc43)CC2)cc1` [Compound 165, (1H-benzo[d][1,2,3]triazol-1-yl)(4-((4-methoxyphenoxy)methyl)piperidin-1-yl)methanone] the value was 0 % of control. The same measure, in the same setting: with `O=C(N1CCOCC1)n1cnc(-c2ccccc2)n1` [Compound 73, morpholino(3-phenyl-1H-1,2,4-triazol-1-yl)methanone] the figure was 85.8 % of control; with `C[C@@H]1CN(C(=O)n2nnc3ccccc32)C[C@@H](C)O1` [Compound 193, (1H-benzo[d][1,2,3]triazol-1-yl)((2R,6R)-2,6-dimethylmorpholino)methanone], 110.2 % of control. With `O=C(Nc1ccccc1)n1nnc2ccccc21` [Compound 60, N-phenyl-1H-benzo[d][1,2,3]triazole-1-carboxamide], the “In Vitro FAAH activity, 100 nM” value is on record as 93.8 % of control. Still for that read-out and setting: for `CN(C(=O)n1cnc(-c2ccc(Oc3ccc(C(N)=O)cc3)cc2)n1)c1ccccc1` [Compound 149, 3-(4-(4-carbamoylphenoxy)phenyl)-N-methyl-N-phenyl-1H-1,2,4-triazole-1-carboxamide] the value was 49.9 % of control.

The same assay, now with this note: 10 uM test compound, low value = strong inhibitor.
Take `CN(C(=O)n1ccnc1-c1ccccc1)c1ccccc1` [Compound 26, N-methyl-N,2-diphenyl-1H-imidazole-1-carboxamide]: the “In Vitro FAAH activity, 10 uM” value is 92.6 % of control. On the same count and under the same terms, with `CN(C(=O)n1ccnc1)c1ccccc1` [Compound 2, N-methyl-N-phenyl-1H-imidazole-1-carboxamide] the figure was 11.7 % of control; with `CN(C(=O)n1cnc(-c2ccc(Cl)cc2)c1)c1ccc(F)cc1` [Compound 43, 4-(4-chlorophenyl)-N-(4-fluorophenyl)-N-methyl-1H-imidazole-1-carboxamide], 0.1 % of control; with `COc1ccc(NC(=O)n2ccc(-c3ccc(-c4ccccc4)cc3)n2)cc1` [Compound 23, 3-(biphenyl-4-yl)-N-(4-methoxyphenyl)-1H-pyrazole-1-carboxamide], 93 % of control. Same read-out and setting: with `CN(C(=O)n1cnc(-c2ccc(Cl)cc2)c1)c1ccccc1` [Compound 27, 4-(4-chlorophenyl)-N-methyl-N-phenyl-1H-imidazole-1-carboxamide] the figure was 0.2 % of control; with `O=C(Nc1ccc(Oc2ccccc2)cc1)n1ccc(-c2ccccc2)n1` [Compound 10, N-(4-phenoxyphenyl)-3-phenyl-1H-pyrazole-1-carboxamide], 55 % of control. Same read-out and setting: with `CN(C(=O)n1cnc(-c2ccc(-c3ccccc3)cc2)c1)c1ccccc1` [Compound 35, 4-(biphenyl-4-yl)-N-methyl-N-phenyl-1H-imidazole-1-carboxamide] the figure was 103.1 % of control.

Still in this assay, the particulars now being: rat brain membranes, compound at 100 nM, low value = strong inhibitor.
For `O=C(N1COC(c2ccccc2)C1)n1cnc(-c2ccc(F)c(F)c2)c1` (stereo not shown) [Compound 308, (4-(3,4-difluorophenyl)-1H-imidazol-1-yl)(5-phenyloxazolidin-3-yl)methanone], the “In Vitro 100 nM (FAAH activity, % of control)” value is 2.5 % of control.
